{"source": "patent US20220184037A1", "about": "“PHARMACEUTICAL AGENTS TARGETING CANCER STEM CELLS” (THE JOHNS HOPKINS UNIVERSITY, priority 2020, published 2022)", "key": {"let-7": {"tested_on": "let-7", "assay": "let-7 expression by Q-RT-PCR", "assay_type": "cell-based, human", "details": "parental or spheroid bladder cancer cells", "description": "Total RNA from cell lines was isolated using the RNeasy Plus Mini kit (Qiagen, Valencia, USA) according to the manufacturer's protocol. Total RNA extraction from bladder tissue was performed with the QIAzol Lysis Reagent (Qiagen) followed by phenol extraction and ethanol precipitation. Total RNA was eluted in DEPC treated water and stored at −80 ° C. Total RNA extraction from urine was performed using the MirVana miRNA Isolation Kit (Ambion, Austin, USA). These total RNA were converted to cDNA using the SuperScript III First-Strand Synthesis System (Life technologies, Carlsbad, USA), which was then used as a template for Q-RT-PCR. Q-RT-PCR was performed using the Fast SYBR Green Master Mix (Thermo Fisher Scientific, Waltham, USA) on a 7900HT Fast Real-Time PCR System (Life technologies) in triplicate. Micro RNA (miRNA) extraction was performed using the MirVana miRNA Isolation Kit, and was reverse transcribed using TaqMan reverse transcription kit (Applied Biosystems, Foster City, USA) and miRNA-specific RT primers provided with TaqMan microRNA assays (Applied Biosystems). Q-RT-PCR for miRNAs was performed using the TaqMan Universal PCR Master Mix according to the manufacturer's protocol. SDS software (Applied Biosystems) was used to determine cycle threshold (Ct) values. Expression level was quantified relative to β-actin for mRNA and RNU6B for miRNA using the 2-ΔΔCt method (12).\nFor demethylation, cells (1×10^6/T-75 flask) were treated with […] of the demethylating agent 5-Aza-dC (Sigma) dissolved in 50% acetic acid or were mock-treated with phosphate buffered saline (PBS) including the same amount of acetic acid every 24 hours for 5 days. When combined with the histone deacetylase inhibitor TSA (Sigma), 300 nmol/L TSA was added to the medium for the final 24 hours."}, "[1]": {"tested_on": "promoters of miR-126, miR-296 and miR-200c", "assay": "Bisulfite sequencing of miRNA promoter methylation", "assay_type": "cell-based, human", "details": "spheroid cells"}, "[2]": {"tested_on": "let-7 host gene MIRLET7BHG promoter", "assay": "Bisulfite sequencing of let-7 host gene promoter methylation", "assay_type": "cell-based, human", "details": "10 μM celecoxib, 2 μM PGE2, or 5 μM 5-Aza-dC for 5 days", "description": "Cell pellets were digested with 1% sodium dodecyl sulfate and 50 μg/mL proteinase K (Roche, Nutley, USA) at 48° C. overnight. Isolation of genomic DNA from cell lines was performed with the phenol-chloroform extraction protocol followed by ethanol precipitation. Bisulfite treatment was conducted using an EpiTect Bisulfite K ft (QIAGEN, Valencia, USA), and was subsequently amplified via PCR using primers as shown in the following table. PCR products were purified using the QIAquick Gel Extraction kit (Qiagen), and sequenced by Genewiz DNA sequencing service (Genewiz, South Plainfield, USA). The data were analyzed using the Sequence Scanner v1.0 software (Life technologies). A methylation frequency of ≥50% of total CpG sites within the amplified region was considered “methylation-positive”. For demethylation, cells ([…]) dissolved in 50% acetic acid or were mock-treated with phosphate buffered saline (PBS) including the same amount of acetic acid every 24 hours for 5 days. When combined with the histone deacetylase inhibitor TSA (Sigma), 300 nmol/L TSA was added to the medium for the final 24 hours."}, "[3]": {"tested_on": "xenograft tumors that acquired resistance to erlotinib (5637 cells)", "assay": "In vivo therapeutic efficacy in tumors with acquired resistance to erlotinib", "set-up": "species or system mice", "details": "western blotting (FIG. 7G)", "description": "For therapeutic efficacy, mice were randomly assigned into experimental groups (five mice per group) when tumors reached a volume of […]. For celecoxib and/or VP treatment, celecoxib (5 mg/kg) was administered via intraperitoneal (i.p.) injection once a day (17), and VP (50 mg/kg) was administered via i.p. every other day (18). EP4 antagonist ONO-AE3-208 (10 mg/kg) was administered via i.p. once a day (19). Control was applied with same volume (10 μL per injection) of 10% dimethyl sulphoxide in 1% TWEEN 80 (Sigma-Aldrich). For GEM and CDDP (GC) treatment (i.p.), CDDP (6 mg/kg) was only applied after the first GEM (60 mg/kg) treatment on day 2, followed by three consecutive treatments of GEM on day 5, 8 and 11 (17). The next cycle was started on day 18, and the treatment was continued until tumor reached 2 cm in diameter. For erlotinib treatment, the mice were treated once a day, 6 days per week, by oral gavage with erlotinib (100 mg/kg) or control (PBS containing 0.5% methyl cellulose (Sigma-Aldrich) and 0.1% TWEEN 80) (20). Tumor size was measured at least every three days. Therapeutic efficacy was assessed using percentage change after treatment related to tumor size before treatment. […]"}, "COX2": {"tested_on": "COX2", "assay": "Western blotting of COX2 expression in bladder cancer cells", "assay_type": "cell-based, human", "description": "(§1) Whole cell lysates were extracted using RIPA buffer (Thermo Scientific) supplemented with 10 μL/mL Halt™ Protease Inhibitor Cocktail Kit (Life Technologies) and 30 μL/mL Halt™ Phosphatase Inhibitor Cocktail Kit (Life Technologies). The protein concentrations were determined using a Pierce™ BCA Protein Assay Kit (Life Technologies), and the protein were separated on. NuPAGE 4-12% Bis-Tris Gel (Life Technologies) according to the manufacturer's protocol. COX2 (D5H5), NANOG (D73G4), OCT4 (D7O5Z), CD133 (A3G6K), Snail (C15D3), ZEBI (D80D3), Vimentin (D21H3), CDH2 (D4R1H), CDH1 (24E10), p-EGFR (D7A5), EGFR (D38B1), p-AKT (D9E), AKT (cat #, 9272), p-ERK (D13.14.4E), ERK (137F5), p-YAP1 (D9W2I), p-Src (cat #, 2101), Src (36D10), DNMT1 (D63A6), DNMT3A (D23G1), and DNMT3B (D7070) antibodies were obtained from Cell Signaling Technology (Danvers, Mass., USA), except for SOX2 (EPR3131; Abeam, Cambridge, USA), YAP1 (ab52771; Abeam), CD24 (cat #, AF5247-SP; R&D Systems, Minneapolis USA) and β-actin (A2228; Sigma-Aldrich). Secondary horseradish peroxidase (HRP)-conjugated antibodies were obtained from Cell Signaling Technology, and chemiluminescent detection of HRP-labeled antibodies was performed using Amersham ECL Prime Western Blotting Detection Reagent (GE Healthcare, Piscataway, USA). As loading control, β-actin was used."}, "[4]": {"tested_on": "AKT and extracellular signal-related kinase (ERK)", "assay": "Western blotting of AKT and ERK activation", "assay_type": "cell-based, human", "details": "basal-type cells, erlotinib", "description": "as §1"}}, "data": [{"smiles": "Cc1ccc(-c2cc(C(F)(F)F)nn2-c2ccc(S(N)(=O)=O)cc2)cc1", "note": "[celecoxib, Celecoxib]", "values": [{"measurement": "let-7 expression", "setting": "let-7", "result": "restoration of let-7 expression"}, {"measurement": "promoter methylation of miR-126, miR-296, miR-200c", "setting": "[1]", "result": "demethylated"}, {"measurement": "promoter methylation of the let-7 host gene", "setting": "[2]", "result": "demethylated"}]}, {"smiles": "C#Cc1cccc(Nc2ncnc3cc(OCCOC)c(OCCOC)cc23)c1", "note": "[erlotinib, Erlotinib]", "values": [{"measurement": "EGFR-MAPK signaling in xenograft tumors", "setting": "[3]", "result": "remained suppressed"}, {"measurement": "COX2 expression", "setting": "COX2; basal-type cells, 1 μM erlotinib", "result": "increased COX2 expression"}, {"measurement": "levels of COX2 expression", "setting": "COX2; non-basal-type cells, erlotinib", "result": "did not affect"}, {"measurement": "activation of AKT and ERK", "setting": "[4]", "result": "suppressed activation"}]}]}
